We go through 42 molecules from article PMC5913971, “A Novel Piperazine-Based Drug Lead for Cryptosporidiosis from the Medicines for Malaria Venture Open-Access Malaria Box” (Antimicrobial Agents and Chemotherapy, 2018).

pEC50: −log10 of the molar value.

The first assay deals with C. parvum Iowa isolate. Put plainly: Immunofluorescence assay for C. parvum growth inhibition in HCT-8 cells. The assay is classed as cell-based, Cryptosporidium parvum. As to conditions: Cryptosporidium parvum, HCT-8, read-out: C. parvum EC50 (95% CI). As to the method: Inhibition of C. parvum growth was measured as described previously ([20]). Oocysts were excysted by treatment with 10 mM hydrochloric acid (10 min at 37°C), followed by exposure to 2 mM sodium taurocholate (Sigma-Aldrich) in PBS for 10 min at 16°C. Excysted oocysts were then added to >95% confluent HCT-8 cell monolayers in 384-well plates at a concentration of 5,500 Iowa isolate oocysts per well. For C. parvum field isolates, the inoculum required to yield an infection level similar to that produced by 5,500 Iowa isolate oocysts per well was determined and was used for subsequent assays of parasite inhibition. Compounds were added just before or 3 h after infection, and assay plates were incubated for 48 h postinfection at 37°C under 5% CO2. Wells were then washed three times with PBS containing 111 mM D-galactose, fixed with 4% paraformaldehyde in PBS for 15 min at room temperature, permeabilized with 0.25% Triton X-100 for 10 min at 37°C, washed three times with PBS with 0.1% Tween 20, and blocked with 4% bovine serum albumin (BSA) in PBS for 2 h at 37°C or 4°C overnight. Parasitophorous vacuoles were stained with 1.33 μg/ml of fluorescein-labeled Vicia villosa lectin (Vector Laboratories) diluted in 1% BSA in PBS with 0.1% Tween 20 for 1 h at 37°C, followed by the addition of Hoechst 33258 (AnaSpec) at a final concentration of 0.09 mM diluted in water for another 15 min at 37°C. Wells were then washed five times with PBS containing 0.1% Tween 20. A Nikon Eclipse TE2000 epifluorescence microscope with an automated stage was programmed using NIS-Elements Advanced Research software (Nikon, USA) to focus on the center of each well and take a 3-by-3 composite image using an EXi Blue fluorescence microscopy camera (QImaging, Canada) with a 20× objective (numerical aperture, 0.45). Nucleus and parasite images were exported separately as .tif files and were analyzed using macros developed on the ImageJ platform (National Institutes of Health) ([20]). The only modification from the published macro used to count parasites was that the lower size threshold for parasites was decreased from 16.5 to 4 pixels (1 pixel = 0.65 μm). Graphs were plotted, and half-maximal effective concentration (EC50) and 90% effective concentration (EC90) values were calculated using GraphPad Prism software, version 6.01. For every C. parvum field isolate experiment, a dose-response experiment against the C. parvum Iowa isolate was performed simultaneously as a reference.
As a reminder, the pEC50 is the EC50 on a negative log10 scale, so that one unit is a factor of ten. Turning to `c1cc2nncn2nc1N1CCNCC1` [Compound D-53, N1CCN(CC1)c1ccc2n(n1)cnn2], the negative logarithm of the EC50 (pEC50) was under 4.60.

The assay is the same for the next values; noted with them: Cryptosporidium parvum, HCT-8; Table S3, SAR of MMV665917; read-out: C. parvum EC50 (95% CI).
For `CN1CCN(c2ccc3nnc(C(F)(F)F)n3n2)CC1` [Compound D-2, CN1CCN(CC1)c1ccc2n(n1)c(nn2)C(F)(F)F], the pEC50 was under 4.60.

For `FC(F)(F)c1nnc2ccc(N3CCN(Cc4ccccc4)CC3)nn12` [Compound D-3, FC(c1nnc2n1nc(cc2)N1CCN(CC1)Cc1ccccc1)(F)F], the pEC50 was under 4.60.

For the molecule `CCOC(=O)N1CCN(c2ccc3nnc(C(F)(F)F)n3n2)CC1` [Compound D-4, CCOC(=O)N1CCN(CC1)c1ccc2n(n1)c(nn2)C(F)(F)F], the pEC50 is under 4.60.

As to `c1ccc(N2CCN(c3ccc4nncn4n3)CC2)cc1` [Compound D-9, c1ccc(cc1)N1CCN(CC1)c1ccc2n(n1)cnn2], the pEC50 was under 4.60.

Turning to `CC(=O)N1CCN(c2ccc3nnc(C(F)(F)F)n3n2)CC1` [Compound D-12, CC(=O)N1CCN(CC1)c1ccc2n(n1)c(nn2)C(F)(F)F], the pEC50 is under 4.60.

With `O=C(Nc1ccccc1)N1CCN(c2ccc3nncn3n2)CC1` [Compound D-18, O=C(N1CCN(CC1)c1ccc2n(n1)cnn2)Nc1ccccc1], the pEC50 was under 4.60.

In the case of `O=C(Nc1ccc2c(c1)OCO2)N1CCN(c2ccc3nncn3n2)CC1` [Compound D-19, O=C(N1CCN(CC1)c1ccc2n(n1)cnn2)Nc1ccc2c(c1)OCO2], the pEC50 was under 4.60.

As to `O=C(NC1CCCCC1)N1CCN(c2ccc3nncn3n2)CC1` [Compound D-20, O=C(N1CCN(CC1)c1ccc2n(n1)cnn2)NC1CCCCC1], the negative logarithm of the EC50 (pEC50) is under 4.60.

Consider `Cc1nnc2ccc(N3CCN(C(=O)NCc4ccccc4)CC3)nn12` [Compound D-21, O=C(N1CCN(CC1)c1ccc2n(n1)c(C)nn2)NCc1ccccc1], for which the pEC50 was under 4.60.

With `O=C(NC1CCCCC1)N1CCN(c2ccc3nnc(C4CC4)n3n2)CC1` [Compound D-22, O=C(N1CCN(CC1)c1ccc2n(n1)c(nn2)C1CC1)NC1CCCCC1], the pEC50 was under 4.60.

As for `O=S(=O)(c1ccc(Cl)cc1)N1CCN(c2ccc3nncn3n2)CC1` [Compound D-23, Clc1ccc(cc1)S(=O)(=O)N1CCN(CC1)c1ccc2n(n1)cnn2], the pEC50 was under 4.60.

For the molecule `O=C(COc1ccc(F)cc1)N1CCN(c2ccc3nncn3n2)CC1` [Compound D-26, Fc1ccc(cc1)OCC(=O)N1CCN(CC1)c1ccc2n(n1)cnn2], the pEC50 was 4.70.

Regarding `O=C(Nc1cccc(C(F)(F)F)c1)N1CCN(c2ccc3nncn3n2)CC1` [Compound D-27, O=C(N1CCN(CC1)c1ccc2n(n1)cnn2)Nc1cccc(c1)C(F)(F)F], the pEC50 is 4.77.

Consider `O=C(Nc1ccc(Cl)c(Cl)c1)N1CCN(c2ccc3nncn3n2)CC1` [Compound D-28, O=C(N1CCN(CC1)c1ccc2n(n1)cnn2)Nc1ccc(c(c1)Cl)Cl], for which the negative-log EC50 (pEC50) was 6.26.

Regarding `O=C(c1ccc(F)cc1)N1CCN(c2ccc3nnc(C4CC4)n3n2)CC1` [Compound D-29, Fc1ccc(cc1)C(=O)N1CCN(CC1)c1ccc2n(n1)c(nn2)C1CC1], the pEC50 is under 4.60.

On to `COc1ccc(N2CCN(c3ccc4nncn4n3)CC2)cc1` [Compound D-31, COc1ccc(cc1)N1CCN(CC1)c1ccc2n(n1)cnn2], for which the pEC50 is under 4.60.

Turning to `O=C(Nc1cc(Cl)ccc1Cl)N1CCN(c2ccc3nncn3n2)CC1` [Compound D-32, Clc1ccc(c(c1)NC(=O)N1CCN(CC1)c1ccc2n(n1)cnn2)Cl], the pEC50 was about 4.61.

As for `CCOc1ccccc1NC(=O)N1CCN(c2ccc3nncn3n2)CC1` [Compound D-33, CCOc1ccccc1NC(=O)N1CCN(CC1)c1ccc2n(n1)cnn2], the negative logarithm of the EC50 (pEC50) is under 4.60.

Consider `COc1ccc(C)cc1NC(=O)N1CCN(c2ccc3nncn3n2)CC1` [Compound D-34, COc1ccc(cc1NC(=O)N1CCN(CC1)c1ccc2n(n1)cnn2)C], for which the pEC50 was under 4.60.

With `COc1cc(NC(=O)N2CCN(c3ccc4nncn4n3)CC2)cc(OC)c1` [Compound D-35, COc1cc(cc(c1)OC)NC(=O)N1CCN(CC1)c1ccc2n(n1)cnn2], the pEC50 is under 4.60.

Consider `CC(C)c1ccc(NC(=O)N2CCN(c3ccc4nncn4n3)CC2)cc1` [Compound D-36, O=C(N1CCN(CC1)c1ccc2n(n1)cnn2)Nc1ccc(cc1)C(C)C], for which the pEC50 is under 4.60.

For `O=C(Nc1cc(F)ccc1F)N1CCN(c2ccc3nncn3n2)CC1` [Compound D-37, Fc1ccc(c(c1)NC(=O)N1CCN(CC1)c1ccc2n(n1)cnn2)F], the pEC50 is under 4.60.

With `O=C(Nc1ccc(F)c(Cl)c1)N1CCN(c2ccc3nncn3n2)CC1` [Compound D-38, O=C(N1CCN(CC1)c1ccc2n(n1)cnn2)Nc1ccc(c(c1)Cl)F], the pEC50 was 4.92.

As to `COc1ccc(OC)c(NC(=O)N2CCN(c3ccc4nncn4n3)CC2)c1` [Compound D-40, COc1ccc(cc1NC(=O)N1CCN(CC1)c1ccc2n(n1)cnn2)OC], the pEC50 was under 4.60.

With `O=C(COc1cccc(Cl)c1)N1CCN(c2ccc3nncn3n2)CC1` [Compound D-41, Clc1cccc(c1)OCC(=O)N1CCN(CC1)c1ccc2n(n1)cnn2], the negative logarithm of the EC50 (pEC50) was 4.74.

With `O=C(Cc1ccccc1Cl)N1CCN(c2ccc3nncn3n2)CC1` [Compound D-42, O=C(N1CCN(CC1)c1ccc2n(n1)cnn2)Cc1ccccc1Cl], the pEC50 was under 4.60.

Consider `O=C(Nc1ccc(F)c(Cl)c1)N1CCN(c2ccc3nnc(C4CC4)n3n2)CC1` [Compound D-43, O=C(N1CCN(CC1)c1ccc2n(n1)c(nn2)C1CC1)Nc1ccc(c(c1)Cl)F], for which the pEC50 was under 4.60.

On to `CN(C)S(=O)(=O)c1ccc(C(=O)N2CCN(c3ccc4nncn4n3)CC2)cc1` [Compound D-44, O=C(c1ccc(cc1)S(=O)(=O)N(C)C)N1CCN(CC1)c1ccc2n(n1)cnn2], for which the pEC50 is 5.15.

For `NS(=O)(=O)c1ccc(C(=O)N2CCN(c3ccc4nncn4n3)CC2)cc1` [Compound D-45, O=C(c1ccc(cc1)S(=O)(=O)N)N1CCN(CC1)c1ccc2n(n1)cnn2], the pEC50 was under 4.60.

On to `O=C(c1ccc(Cl)cc1)N1CCN(c2ccc3nncn3n2)CC1` [Compound D-46, Clc1ccc(cc1)C(=O)N1CCN(CC1)c1ccc2n(n1)cnn2], for which the pEC50 was under 4.60.

Consider `O=C(c1cc(Cl)ccc1Cl)N1CCN(c2ccc3nncn3n2)CC1` [Compound D-47, Clc1ccc(c(c1)C(=O)N1CCN(CC1)c1ccc2n(n1)cnn2)Cl], for which the pEC50 was under 4.60.

As for `O=C(c1ccc(S(=O)(=O)N2CCCC2)cc1)N1CCN(c2ccc3nncn3n2)CC1` [Compound D-48, O=C(c1ccc(cc1)S(=O)(=O)N1CCCC1)N1CCN(CC1)c1ccc2n(n1)cnn2], the pEC50 is under 4.60.

On to `O=C(Cc1noc2ccccc12)N1CCN(c2ccc3nncn3n2)CC1` [Compound D-49, O=C(N1CCN(CC1)c1ccc2n(n1)cnn2)Cc1noc2c1cccc2], for which the pEC50 was under 4.60.

Turning to `O=C(COc1ccc(Cl)cc1Cl)N1CCN(c2ccc3nncn3n2)CC1` [Compound D-50, Clc1ccc(c(c1)Cl)OCC(=O)N1CCN(CC1)c1ccc2n(n1)cnn2], the pEC50 was 4.80.

`CC(Oc1ccc(Cl)cc1Cl)C(=O)N1CCN(c2ccc3nncn3n2)CC1` [Compound D-51, Clc1ccc(c(c1)Cl)OC(C(=O)N1CCN(CC1)c1ccc2n(n1)cnn2)C]: the pEC50 was under 4.60.

For the molecule `Cc1nnc2ccc(N3CCN(C(=O)OC(C)(C)C)CC3)nn12` [Compound D-60, O=C(N1CCN(CC1)c1ccc2n(n1)c(C)nn2)OC(C)(C)C], the pEC50 was under 4.60.

`O=C(Nc1ccc(Cl)c(Cl)c1)N1CCN(c2ccccc2)CC1` [Compound D-74, O=C(Nc1ccc(Cl)c(Cl)c1)N2CCN(CC2)c3ccccc3]: the pEC50 is 4.70.

Turning to `O=C(Nc1ccc(C(F)(F)F)cc1)N1CCN(c2ccc3nncn3n2)CC1` [Compound D-75, FC(F)(F)c1ccc(cc1)NC(=O)N2CCN(CC2)c3ccc4nncn4n3], the pEC50 is 4.96.

`O=C(Nc1ccc(OC(F)(F)F)cc1)N1CCN(c2ccc3nncn3n2)CC1` [Compound D-76, FC(F)(F)Oc1ccc(cc1)NC(=O)N2CCN(CC2)c3ccc4nncn4n3]: the pEC50 was under 4.60.

`O=C(Nc1cccc(Cl)c1)N1CCN(c2ccc3nncn3n2)CC1` [Compound D-77, Clc1cccc(c1)NC(=O)N2CCN(CC2)c3ccc4nncn4n3]: the pEC50 was about 4.63.

Still in this assay, the particulars now being: Cryptosporidium parvum; inside HCT-8 cells, 48 h incubation; Fig. 1; read-out: EC50, anti-C. parvum dose response.
Take `O=C(COc1cccc(Cl)c1)N1CCN(c2ccc3nncn3n2)CC1` [Compound D-41, Clc1cccc(c1)OCC(=O)N1CCN(CC1)c1ccc2n(n1)cnn2]: the pEC50 was about 4.74.

Still in this assay, the particulars now being: Table S3, SAR of MMV665917; read-out: C. parvum EC50 (95% CI).
For `O=C(Nc1ccc(Cl)cc1)N1CCN(c2ccc3nncn3n2)CC1` [Compound D-78, O=C(N1CCN(C2=NN3C(C=C2)=NN=C3)CC1)NC5=CC=C(Cl)C=C5], the pEC50 is under 4.60.
